Legend:
DPPH radical scavenging = conditions: for IC50: read-out: DPPH (IC50 value in μM)
α-amylase = target: T1, α-amylase (Homo sapiens, UniProt P04746); assay: biochemical
T1 sequence (P04746 16-511): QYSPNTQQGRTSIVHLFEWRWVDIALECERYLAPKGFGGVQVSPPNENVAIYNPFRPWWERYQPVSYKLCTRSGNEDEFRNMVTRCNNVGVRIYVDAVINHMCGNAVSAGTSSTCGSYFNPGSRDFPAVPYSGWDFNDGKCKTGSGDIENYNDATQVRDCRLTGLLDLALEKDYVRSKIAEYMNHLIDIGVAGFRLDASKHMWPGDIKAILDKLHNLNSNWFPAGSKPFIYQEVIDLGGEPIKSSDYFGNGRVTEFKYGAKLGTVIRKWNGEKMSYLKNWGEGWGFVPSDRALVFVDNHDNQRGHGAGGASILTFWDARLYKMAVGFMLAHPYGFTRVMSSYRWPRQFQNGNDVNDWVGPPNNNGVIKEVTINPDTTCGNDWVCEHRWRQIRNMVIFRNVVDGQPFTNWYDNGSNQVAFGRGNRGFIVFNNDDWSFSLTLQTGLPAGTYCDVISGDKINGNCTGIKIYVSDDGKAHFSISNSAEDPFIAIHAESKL

| DPPH (IC50 value in μM) (DPPH radical scavenging) | IC50 (DPPH radical scavenging) [µM] | IC50 (α-amylase) [µM] | Compound |
| --- | --- | --- | --- |
| potential antioxidant activity | 84.2 | 188 | CC(=O)N1N=C(c2ccccc2)CC1c1ccccc1O (stereo not drawn) [Compound 1, 1-(5-(2-Hydroxyphenyl)-3-phenyl-4,5-dihydro-1H-pyrazol-1-yl)ethanone] |
| potential antioxidant activity | 85.1 | 301 | CC(=O)N1N=C(c2ccccc2)CC1c1ccco1 (stereo not drawn) [Compound 2, 1-(5-(Furan-2-yl)-3-phenyl-4,5-dihydro-1H-pyrazol-1-yl)ethanone] |
| – | 205 | 604 | CC(=O)N1N=C(c2ccccc2)CC1c1cccc([N+](=O)[O-])c1 (stereo not drawn) [Compound 3, 1-(5-(3-Nitrophenyl)-3-phenyl-4,5-dihydro-1H-pyrazol-1-yl)ethanone] |
| – | 914 | 663 | CC(=O)N1N=C(c2ccccc2)CC1c1ccccn1 (stereo not drawn) [Compound 4, 1-(3-Phenyl-5-(pyridin-2-yl)-4,5-dihydro-1H-pyrazol-1-yl)ethanone] |
| potential antioxidant activity | 30 | 35.5 | CC(=O)N1N=C(c2ccccc2)CC1c1ccc(C)cc1 (stereo not drawn) [Compound 5, 1-(3-Phenyl-5-(p-tolyl)-4,5-dihydro-1H-pyrazol-1-yl)ethanone] |
| – | 554 | 811 | COc1ccc(C2=NN(C(C)=O)C(c3ccco3)C2)cc1 (stereo not drawn) [Compound 6, 1-(5-(Furan-2-yl)-3-(4-methoxyphenyl)-4,5-dihydro-1H-pyrazol-1-yl)ethanone] |
| potential antioxidant activity | 69 | 196 | CC(=O)N1N=C(c2ccc(O)cc2)CC1c1ccccn1 (stereo not drawn) [Compound 7, 1-(3-(4-Hydroxyphenyl)-5-(pyridin-2-yl)-4,5-dihydro-1H-pyrazol-1-yl)ethanone] |
| potential antioxidant activity | 106 | 1.07 | CC(=O)N1N=C(c2ccc(O)cc2)CC1c1ccco1 (stereo not drawn) [Compound 8, 1-(5-(Furan-2-yl)-3-(4-hydroxyphenyl)-4,5-dihydro-1H-pyrazol-1-yl)ethanone] |
| – | 161 | 632 | CC(=O)N1N=C(c2ccc(O)cc2)CC1c1cccc([N+](=O)[O-])c1 (stereo not drawn) [Compound 9, 1-(3-(4-Hydroxyphenyl)-5-(3-nitrophenyl)-4,5-dihydro-1H-pyrazol-1-yl)ethanone] |
| potential antioxidant activity | 41.1 | 388 | CC(=O)N1N=C(c2ccc(O)cc2)CC1c1ccc(N(C)C)cc1 (stereo not drawn) [Compound 10, 1-(5-(4-(Dimethylamino)phenyl)-3-(4-hydroxyphenyl)-4,5-dihydropyrazol-1-yl)ethanone] |
| potential antioxidant activity | 53.5 | 0.551 | COc1ccc(C2CC(c3ccc(O)cc3)=NN2C(C)=O)cc1 (stereo not drawn) [Compound 11, 1-(3-(4-Hydroxyphenyl)-5-(4-methoxyphenyl)-4,5-dihydro-1H-pyrazol-1-yl)ethanone] |
| potential antioxidant activity | 151 | 400 | CC(=O)N1N=C(c2ccc(O)cc2)CC1c1ccc(C)cc1 (stereo not drawn) [Compound 12, 1-(3-(4-Hydroxyphenyl)-5-(p-tolyl)-4,5-dihydro-1H-pyrazol-1-yl)ethanone] |
| potential antioxidant activity | 131 | – | COc1ccc(C2CC(c3ccc(Cl)cc3)=NN2C(C)=O)cc1 (stereo not drawn) [Compound 13, 1-(3-(4-Chlorophenyl)-5-(4-methoxyphenyl)-4,5-dihydro-1H-pyrazol-1-yl)ethanone] |
| – | 179 | – | CC(=O)N1N=C(c2ccc(Cl)cc2)CC1c1ccc(C)cc1 (stereo not drawn) [Compound 14, 1-(3-(4-Chlorophenyl)-5-(p-tolyl)-4,5-dihydro-1H-pyrazol-1-yl)ethanone] |
| – | 383 | 425 | CC(=O)N1N=C(c2ccc(Cl)cc2)CC1c1cccs1 (stereo not drawn) [Compound 15, 1-(3-(4-Chlorophenyl)-5-(thiophen-2-yl)-4,5-dihydro-1H-pyrazol-1-yl)ethanone] |
| – | 56.3 | 62.5 | COc1ccc(C2CC(c3ccc(Cl)cc3)=NN2C(C)=O)cc1O (stereo not drawn) [Compound 16, 1-(3-(4-Chlorophenyl)-5-(3-hydroxy-4-methoxyphenyl)-4,5-dihydropyrazol-1-yl)ethanone] |
| – | 160 | 315 | CC(=O)N1N=C(c2ccc(Cl)cc2)CC1c1cccc(O)c1 (stereo not drawn) [Compound 17, 1-(3-(4-Chlorophenyl)-5-(3-hydroxyphenyl)-4,5-dihydropyrazol-1-yl)ethanone] |
| – | 199 | 281 | CC(=O)N1N=C(c2ccc(Cl)cc2)CC1c1ccccn1 (stereo not drawn) [Compound 18, 1-(3-(4-Chlorophenyl)-5-(pyridin-2-yl)-4,5-dihydro-1H-pyrazol-1-yl)ethanone] |
| – | 172 | – | CC(=O)N1N=C(c2ccc(Cl)cc2)CC1c1ccccc1 (stereo not drawn) [Compound 19, 1-(3-(4-Chlorophenyl)-5-phenyl-4,5-dihydro-1H-pyrazol-1-yl)ethanone] |
| potential antioxidant activity | 99.6 | 590 | CC(=O)N1N=C(c2ccc(Cl)cc2)CC1c1ccccc1O (stereo not drawn) [Compound 20, 1-(3-(4-Chlorophenyl)-5-(2-hydroxyphenyl)-4,5-dihydro-1H-pyrazol-1-yl)ethanone] |
| – | 580 | 262 | CC(=O)N1N=C(c2ccc(Cl)cc2)CC1c1ccco1 (stereo not drawn) [Compound 21, 1-(3-(4-Chlorophenyl)-5-(furan-2-yl)-4,5-dihydro-1H-pyrazol-1-yl)ethanone] |
| – | 220 | 61.5 | CC(=O)N1N=C(c2ccc(Cl)cc2)CC1c1cccc([N+](=O)[O-])c1 (stereo not drawn) [Compound 22, 1-(3-(4-Chlorophenyl)-5-(3-nitrophenyl)-4,5-dihydro-1H-pyrazol-1-yl)ethanone] |

Reference: paper PMC10268634 (ACS Omega, 2023)
